Experimental data as given in patent publication US20250230154A1, “COMPOUND HAVING SHP2 PROTEIN DEGRADING ACTIVITY, AND MEDICAL USES THEREOF” (UBIX THERAPEUTICS, INC., priority 2021, published 2025).

Target: T1, SHP2 protein (Homo sapiens, UniProt Q06124)
T1 sequence (Q06124 1-593): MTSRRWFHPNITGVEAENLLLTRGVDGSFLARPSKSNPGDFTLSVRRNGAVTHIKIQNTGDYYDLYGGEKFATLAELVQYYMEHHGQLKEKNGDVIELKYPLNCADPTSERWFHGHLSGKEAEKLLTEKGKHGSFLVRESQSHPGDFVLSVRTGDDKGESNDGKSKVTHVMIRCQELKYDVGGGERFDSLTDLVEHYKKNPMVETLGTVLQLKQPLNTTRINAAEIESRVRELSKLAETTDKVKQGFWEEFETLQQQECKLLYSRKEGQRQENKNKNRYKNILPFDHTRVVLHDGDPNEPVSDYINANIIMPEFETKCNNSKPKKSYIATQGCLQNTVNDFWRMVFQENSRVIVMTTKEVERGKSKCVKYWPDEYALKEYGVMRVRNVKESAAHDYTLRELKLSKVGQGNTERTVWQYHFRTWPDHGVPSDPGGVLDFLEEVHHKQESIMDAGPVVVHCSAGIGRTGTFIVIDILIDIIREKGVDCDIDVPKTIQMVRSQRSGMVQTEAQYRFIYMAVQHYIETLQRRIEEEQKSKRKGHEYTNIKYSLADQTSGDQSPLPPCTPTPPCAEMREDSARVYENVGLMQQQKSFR
Assay: Measurement of SHP2 protein degradation in MV-4-11 cells (western blotting)
Type: cell-based
Set-up: endogenous in cells; host or cells: MV-4-11
Details: for SHP2 degradation (%) 10 nM / SHP2 degradation (%) 100 nM / SHP2 degradation (%) 1000 nM: MV-4-11 cells, 24 hours
In short: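 SHP2 protein levels were assessed by western blotting in MV-4-11 cells after a 24 hour compound treatment. Lysates were sonicated, centrifuged, normalized by BCA assay at 562 nm, run on Bis-tris 4-12% gels, transferred to NC membrane, probed with anti-SHPTP2 (70 kDa) and anti-GAPDH (37 kDa) antibodies, and detected on LI-COR Odyssey.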

SMILES	SHP2 degradation (%) 10 nM [%]	SHP2 degradation (%) 100 nM [%]	SHP2 degradation (%) 1000 nM [%]	SHP2 protein degradation activity (in words) (comment on Table 4)
Cc1ncsc1-c1ccc(CNC(=O)[C@@H]2C[C@@H](O)CN2C(=O)[C@@H](NC(=O)C2(F)CC2)C(C)(C)C)c(OCC2CCN(C(=O)CC(=O)Nc3cccc(Sc4ncc(N5CCC(C)(CN)CC5)nc4N)c3Cl)CC2)c1 [Example 32, (2S,4R)—N-(2-((1-(3-((3-((3-amino-5-(4-(aminomethyl)-4-methylpiperidin-1-yl)pyrazin-2-yl)thio)-2-chlorophenyl)amino)-3-oxopropanoyl)piperidin-4-yl)methoxy)-4-(4-methylthiazol-5-yl)benzyl)-1-((S)-2-(1-fluorocyclopropane-1-carboxamido)-3,3-dimethylbutanoyl)-4-hydroxypyrrolidine-2-carboxamide]	75	95		
Cc1ncsc1-c1ccc(CNC(=O)[C@@H]2C[C@@H](O)CN2C(=O)[C@@H](NC(=O)C2(F)CC2)C(C)(C)C)c(OCCN2CCN(C(=O)CC(=O)Nc3cccc(Sc4cnc(N5CCC(C)(CN)CC5)cn4)c3Cl)[C@H](C)C2)c1 [Example 62, (2S,4R)—N-(2-(2-((R)-4-(3-((3-((5-(4-(aminomethyl)-4-methylpiperidin-1-yl)pyrazin-2-yl)thio)-2-chlorophenyl)amino)-3-oxopropanoyl)-3-methylpiperazin-1-yl)ethoxy)-4-(4-methylthiazol-5-yl)benzyl)-1-((S)-2-(1-fluorocyclopropane-1-carboxamido)-3,3-dimethylbutanoyl)-4-hydroxypyrrolidine-2-carboxamide]	82.5	96		
Cc1ncsc1-c1ccc(CNC(=O)[C@@H]2C[C@@H](O)CN2C(=O)[C@@H](NC(=O)C2(F)CC2)C(C)(C)C)c(OCCN2CCN(c3ccc(C(=O)Nc4cccc(Sc5cnc(N6CCC(C)(CN)CC6)cn5)c4Cl)nn3)CC2)c1 [Example 85, N-(3-((5-(4-(aminomethyl)-4-methylpiperidin-1-yl)pyrazin-2-yl)thio)-2-chlorophenyl)-6-(4-(2-(2-(((2S,4R)-1-((S)-2-(1-fluorocyclopropane-1-carboxamido)-3,3-dimethylbutanoyl)-4-hydroxypyrrolidine-2-carboxamido)methyl)-5-(4-methylthiazol-5-yl)phenoxy)ethyl)piperazin-1-yl)pyridazine-3-carboxamide]	73	97.5		
Cc1ncsc1-c1ccc(CNC(=O)[C@@H]2C[C@@H](O)CN2C(=O)[C@@H](NC(=O)C2CC2)C(C)(C)C)c(OCCN2CCN(CC(=O)Nc3cccc(Sc4cnc(N5CCC(C)(CN)CC5)cn4)c3Cl)C(=O)C2)c1 [Example 79, (2S,4R)—N-(2-(2-(4-(2-((3-((5-(4-(aminomethyl)-4-methylpiperidin-1-yl)pyrazin-2-yl)thio)-2-chlorophenyl)amino)-2-oxoethyl)-3-oxopiperazin-1-yl)ethoxy)-4-(4-methylthiazol-5-yl)benzyl)-1-((S)-2-(cyclopropanecarboxamido)-3,3-dimethylbutanoyl)-4-hydroxypyrrolidine-2-carboxamide]	78.4	98.6		
Cc1ncsc1-c1ccc(CNC(=O)[C@@H]2C[C@@H](O)CN2C(=O)[C@@H](NC(=O)C2(F)CC2)C(C)(C)C)c(OCCCN2CCN(C(=O)CC(=O)Nc3cccc(Sc4cnc(N5CCC(C)(CN)CC5)cn4)c3Cl)CC2)c1 [Example 60, (2S,4R)—N-(2-(3-(4-(3-((3-((5-(4-(aminomethyl)-4-methylpiperidin-1-yl)pyrazin-2-yl)thio)-2-chlorophenyl)amino)-3-oxopropanoyl)piperazin-1-yl)propoxy)-4-(4-methylthiazol-5-yl)benzyl)-1-((S)-2-(1-fluorocyclopropane-1-carboxamido)-3,3-dimethylbutanoyl)-4-hydroxypyrrolidine-2-carboxamide]	59	94	95.5	
Cc1ncsc1-c1ccc(CNC(=O)[C@@H]2C[C@@H](O)CN2C(=O)[C@@H](NC(=O)C2(F)CC2)C(C)(C)C)c(OCCC2CCN(C(=O)CCC(=O)Nc3cccc(Sc4cnc(N5CCC(C)(CN)CC5)cn4)c3Cl)CC2)c1 [Example 45, (2S,4R)—N-(2-(2-(1-(4-((3-((5-(4-(aminomethyl)-4-methylpiperidin-1-yl)pyrazin-2-yl)thio)-2-chlorophenyl)amino)-4-oxobutanoyl)piperidin-4-yl)ethoxy)-4-(4-methylthiazol-5-yl)benzyl)-1-((S)-2-(1-fluorocyclopropane-1-carboxamido)-3,3-dimethylbutanoyl)-4-hydroxypyrrolidine-2-carboxamide]	68.0	91.0	93.0	
Cc1ncsc1-c1ccc(CNC(=O)[C@@H]2C[C@@H](O)CN2C(=O)[C@@H](NC(=O)C2(F)CC2)C(C)(C)C)c(OCCN2CCN(C(=O)CC(=O)Nc3cccc(Sc4cnc(N5CCC(C)(CN)CC5)cn4)c3Cl)C[C@H]2C(=O)O)c1 [Example 69, (S)-4-(3-((3-((5-(4-(aminomethyl)-4-methylpiperidin-1-yl)pyrazin-2-yl)thio)-2-chlorophenyl)amino)-3-oxopropanoyl)-1-(2-(2-(((2S,4R)-1-((S)-2-(1-fluorocyclopropane-1-carboxamido)-3,3-dimethylbutanoyl)-4-hydroxypyrrolidine-2-carboxamido)methyl)-5-(4-methylthiazol-5-yl)phenoxy)ethyl)piperazine-2-carboxylic Acid]	20	81.9		
Cc1ncsc1-c1ccc(CNC(=O)[C@@H]2C[C@@H](O)CN2C(=O)[C@@H](NC(=O)C2(F)CC2)C(C)(C)C)c(OCCN2CCN(C(=O)C(C)C(=O)Nc3cccc(Sc4cnc(N5CCC(C)(CN)CC5)cn4)c3Cl)CC2)c1 (stereo partly drawn) [Example 58, (2S,4R)—N-(2-(2-(4-(3-((3-((5-(4-(aminomethyl)-4-methylpiperidin-1-yl)pyrazin-2-yl)thio)-2-chlorophenyl)amino)-2-methyl-3-oxopropanoyl)piperazin-1-yl)ethoxy)-4-(4-methylthiazol-5-yl)benzyl)-1-((S)-2-(1-fluorocyclopropane-1-carboxamido)-3,3-dimethylbutanoyl)-4-hydroxypyrrolidine-2-carboxamide]	90.0	99.9		
Cc1ncsc1-c1ccc(CNC(=O)[C@@H]2C[C@@H](O)CN2C(=O)[C@@H](NC(=O)C2(F)CC2)C(C)(C)C)c(OCCC2CCN(C(=O)C(C)(C)C(=O)Nc3cccc(Sc4cnc(N5CCC(C)(CN)CC5)cn4)c3Cl)CC2)c1 [Example 49, (2S,4R)—N-(2-(2-(1-(3-((3-((5-(4-(aminomethyl)-4-methylpiperidin-1-yl)pyrazin-2-yl)thio)-2-chlorophenyl)amino)-2,2-dimethyl-3-oxopropanoyl)piperidin-4-yl)ethoxy)-4-(4-methylthiazol-5-yl)benzyl)-1-((S)-2-(1-fluorocyclopropane-1-carboxamido)-3,3-dimethylbutanoyl)-4-hydroxypyrrolidine-2-carboxamide]	4.0	10.6		somewhat decreased
Cc1ncsc1-c1ccc(CNC(=O)[C@@H]2C[C@@H](O)CN2C(=O)[C@@H](NC(=O)C2(F)CC2)C(C)(C)C)c(OCCN2CCN(C(=O)CC(=O)Nc3cccc(Sc4cnc(N5CCC(C)(CN)CC5)cn4)c3Cl)[C@@H](C)C2)c1 [Example 63, (2S,4R)—N-(2-(2-((S)-4-(3-((3-((5-(4-(aminomethyl)-4-methylpiperidin-1-yl)pyrazin-2-yl)thio)-2-chlorophenyl)amino)-3-oxopropanoyl)-3-methylpiperazin-1-yl)ethoxy)-4-(4-methylthiazol-5-yl)benzyl)-1-((S)-2-(1-fluorocyclopropane-1-carboxamido)-3,3-dimethylbutanoyl)-4-hydroxypyrrolidine-2-carboxamide]	90.5	97		
Cc1ncsc1-c1ccc(CNC(=O)[C@@H]2C[C@@H](O)CN2C(=O)[C@@H](NC(=O)C2(F)CC2)C(C)(C)C)c(OCCCN2CCC(O)(CC(=O)Nc3cccc(Sc4cnc(N5CCC(C)(CN)CC5)cn4)c3Cl)CC2)c1 [Example 20]	54.9	99.0		
Cc1ncsc1-c1ccc(CNC(=O)[C@@H]2C[C@@H](O)CN2C(=O)[C@@H](NC(=O)C2(F)CC2)C(C)(C)C)c(OCCCN2CCC(CC(=O)Nc3cccc(Sc4cnc(N5CC[C@H](CN)C5)cn4)c3Cl)CC2)c1 [Example 11, (2S,4R)—N-(2-(3-(4-(2-((3-((5-((R)-3-(aminomethyl)pyrrolidin-1-yl)pyrazin-2-yl)thio)-2-chlorophenyl)amino)-2-oxoethyl)piperidin-1-yl)propoxy)-4-(4-methylthiazol-5-yl)benzyl)-1-((S)-2-(1-fluorocyclopropane-1-carboxamido)-3,3-dimethylbutanoyl)-4-hydroxypyrrolidine-2-carboxamide]	−8.9	19.2	35.9	
